Data reported in patent publication US20230372407A1, “METHODS FOR MODULATING TLR4 SIGNALING” (President and Fellows of Harvard College, priority 2020, published 2023).
Where two headings read alike, the source gives them in different places.

Tests used:
Human specimens = Human specimens response to PSA; assay type: cell-based
TLR4 = assay type: cell-based, mouse
CD4+FOXP3+ Tregs = assay: Human colon biopsy cLP lymphocytes, IL-10 production by CD4+FOXP3+ Tregs; assay type: cell-based; settings: total cLP lymphocytes from human colon biopsies, 6-10 days
Protocol: FIG. 13. PSA induces Tregs in cells obtained from human gut tissue biopsies. Total cLP lymphocytes from 8-10 human colon biopsies were treated with PBS, WT-OMV, DPSA-OMV, or purified PSA for 6-10 days. IL-10 production by CD4+FOXP3+ Tregs was assessed by flow cytometry and intracellular cytokine staining. ** p<0.01, One-way ANOVA. Error bars represent mean +S.E.M.

VSV-GFP = assay type: cell-based, mouse
CD4+ T cells = assay type: cell-based; settings: data not shown
[1] = Mouse autoimmune disease model; assay type: in vivo; settings: dependent on IFN-I signaling; data not shown
ISG expression [2] = assay: ISG / BST2 expression in BMDCs (qRT-PCR, flow cytometry); assay type: cell-based, mouse
VSV strain Indiana = settings: mouse, in vivo, po
IAV/PR8-GFP = assay type: cell-based, mouse
Ifnb1 expression = Ifnb1 expression by lamina propria DCs (qRT-PCR); assay type: in vivo, mouse; settings: WT SPF mice, 150 ug oral gavage, 1.5 hrs
Protocol: To confirm the relevance of these findings in vivo, Ifnb1 expression by colon LP DCs was analyzed in WT SPF mice administered 150 ug of PSA by oral gavage.
RNA was isolated from whole tissues or the DC^+ and DC^− fractions of spleens, mLNs, and colons following manufacturer's instructions with the RNeasy mini kit (Qiagen). cDNA was prepared with the Quantitect Reverse Transcription Kit (Qiagen). qRT-PCR was performed on a QuantStudio7 Flex or Pro Real-Time PCR system (Applied Biosystems) with RT^2 SYBR Green ROX qPCR Mastermix (Qiagen). Amplification was achieved using an initial cycle of 95° C. for 10 min, followed by 40 cycles of 95° C. for 15 s and 60° C. for 1 min. Gene expression was normalized using Actb as a reference gene. The forward (f) and reverse (r) primers used to detect expression of the corresponding murine genes were as follows (SEQ ID NOs: 1-20, respectively):
Single-cell suspensions of the indicated tissues were prepared as described. DC positive and negative fractions were isolated with mouse pan-DC microbeads (Miltenyi), following the manufacturer's protocol.
GFWT C57BL/6 mice were administered B. fragilis strain NCTC 9343 or C. ramosum strain AO31 by oral gavage [200 uL, approximately 10^8-10^9 colony-forming units (CFU) per mouse]. […]

ISG expression [3] = assay: ISG expression in mesenteric lymph nodes (qRT-PCR); assay type: in vivo, mouse
ISG expression [4] = assay: ISG expression in spleen (qRT-PCR); assay type: in vivo, mouse
[5] = WT SPF mice + metronidazole 7 days (Table 3)
[6] = WT SPF mice + metronidazole 7 days (Table 4)

polysaccharide A [PSA]
response of human specimens (Human specimens): dose-dependent manner | IFNβ secretion by BMDCs (TLR4; Myd88−/− BMDCs, 50 ug/mL, 6 hrs): significant decrease | IFNβ secretion by BMDCs (TLR4; Tlr2−/− BMDCs vs WT, 50 ug/mL, 6 hrs): no effect | IFNβ secretion by BMDCs (TLR4; Tlr4−/− BMDCs vs WT): completely lost the ability to secrete IFNβ | IFNβ secretion by BMDCs (TLR4; Trif−/− BMDCs, 50 ug/mL, 6 hrs): lack of increased IFNβ secretion | IFNβ secretion by BMDCs (TLR4; WT BMDCs): significantly induced | IFNβ secretion by BMDCs (TLR4; dectin-1 deficient (Clec7a−/−) BMDCs vs WT, 50 ug/mL, 6 hrs): no effect | IL-10 production by CD4+FOXP3+ Tregs (CD4+FOXP3+ Tregs): induces Tregs | Protection from VSV-GFP infection (VSV-GFP): completely lost | cell viability (VSV-GFP): increased cell viability | percentage of infected (GFP+) cells (VSV-GFP): inhibited virus infection in a dose-dependent manner | IL-10 secretion by CD4+ T cells (CD4+ T cells): enhance IL-10 secretion | protective effects in a mouse autoimmune disease model [1]: protective effects | Surface BST2 levels (ISG expression [2]; Ifnar1−/− and Ifnb1−/− BMDCs vs WT): significantly reduced | expression of a panel of ISGs (ISG expression [2]; WT BMDCs, 24 hrs, 50 ug/mL, vs vehicle): increase in expression | BST2 mean fluorescence intensity (MFI) (ISG expression [2]; WT BMDCs, 24 hrs, 100 ug/mL, vs vehicle): increased | daily and cumulative paralysis scores (VSV strain Indiana): decreased | incidence of disease (VSV strain Indiana): decreased | survival (VSV strain Indiana): enhanced survival | antiviral effect against IAV/PR8-GFP (IAV/PR8-GFP): completely abrogated | cell viability (IAV/PR8-GFP): increase in cell viability | percentage of infected cells (IAV/PR8-GFP): significant reduction | Ifnb1 expression by colon LP DCs (Ifnb1 expression): significant increase

lipooligosaccharide [LOS]
IFNβ secretion by BMDCs (TLR4; Tlr4−/− BMDCs vs WT): through TLR4 | IFNβ secretion by BMDCs (TLR4; WT BMDCs): dose-dependent manner

Cc1ncc([N+](=O)[O-])n1CCO [metronidazole]
Ifit1 mLN fold difference gene expression to WT SPF, Mean (ISG expression [3]; [5]): 0.57 fold | Ifit2 mLN fold difference gene expression to WT SPF, Mean (ISG expression [3]; [5]): 0.69 fold | Ifit3 mLN fold difference gene expression to WT SPF, Mean (ISG expression [3]; [5]): 0.76 fold | Irf7 mLN fold difference gene expression to WT SPF, Mean (ISG expression [3]; [5]): 0.68 fold | Mx1 mLN fold difference gene expression to WT SPF, Mean (ISG expression [3]; [5]): 0.78 fold | Oas/2 mLN fold difference gene expression to WT SPF, Mean (ISG expression [3]; [5]): 0.74 fold | Rsad2 mLN fold difference gene expression to WT SPF, Mean (ISG expression [3]; [5]): 0.46 fold | ISG expression in mLN (panel) (ISG expression [3]; WT mice vs WT SPF): significant decreases in ISG expression | Ifit1 Spleen fold difference gene expression to WT SPF, Mean (ISG expression [4]; [6]): 0.57 fold | Ifit2 Spleen fold difference gene expression to WT SPF, Mean (ISG expression [4]; [6]): 0.69 fold | Ifit3 Spleen fold difference gene expression to WT SPF, Mean (ISG expression [4]; [6]): 0.76 fold | Irf7 Spleen fold difference gene expression to WT SPF, Mean (ISG expression [4]; [6]): 0.68 fold | Mx1 Spleen fold difference gene expression to WT SPF, Mean (ISG expression [4]; [6]): 0.78 fold | Oas/2 Spleen fold difference gene expression to WT SPF, Mean (ISG expression [4]; [6]): 0.74 fold | Rsad2 Spleen fold difference gene expression to WT SPF, Mean (ISG expression [4]; [6]): 0.46 fold | ISG expression in spleen (panel) (ISG expression [4]; WT mice vs WT SPF): significant decreases in ISG expression
